From patent US7855292B2, “Sulfonamide compounds” (Janssen Pharmaceutica NV, priority 2004, dated 2010) come the findings set out here.

Experiment [1] deals with T1, CCK2 receptor (Homo sapiens, UniProt P32239).
T1 construct: analyzed for ZFP expression as well as CCK2R induction upon addition of doxycycline to the culture medium; endogenous in cells
T1 sequence (P32239 1-447): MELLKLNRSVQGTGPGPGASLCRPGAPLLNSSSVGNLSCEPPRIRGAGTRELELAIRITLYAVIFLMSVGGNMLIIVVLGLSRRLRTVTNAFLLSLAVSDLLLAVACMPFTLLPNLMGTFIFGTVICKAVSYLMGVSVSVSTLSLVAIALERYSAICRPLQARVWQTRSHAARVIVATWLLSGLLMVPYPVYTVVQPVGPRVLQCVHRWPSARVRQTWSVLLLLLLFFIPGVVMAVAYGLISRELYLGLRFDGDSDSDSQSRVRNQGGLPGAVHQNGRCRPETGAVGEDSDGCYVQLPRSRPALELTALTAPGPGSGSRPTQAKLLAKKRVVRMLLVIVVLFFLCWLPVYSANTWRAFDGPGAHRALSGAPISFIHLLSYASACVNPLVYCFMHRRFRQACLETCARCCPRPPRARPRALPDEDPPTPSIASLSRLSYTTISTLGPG
In words: CCK2 binding assay ([125I]-BH-CCK-8S displacement, HEKZFP membranes). The following applies: membranes of doxycycline-induced HEKZFP cells; 20 pM [125I]-BH-CCK-8S; 60 min at 21±3° C.; read-out: CCK2 pKi (converted). The method, then:
2. CCK2 Assay Development and Data Generation
Zinc Finger Proteins (ZFP) specific for the CCK2R gene were identified by Sangamo Biosciences. The ZFP domain was fused with the herpes simplex virus VP16 activation domain, and the fusion protein was subsequently cloned into the pcDNA3 mammalian expression vector (Invitrogen, San Diego, Calif.). […] After 2 weeks of selection in culture medium containing […] Zeocin (Invitrogen), sixty drug-resistant stable clones were isolated and analyzed for ZFP expression as well as CCK2R induction upon addition of doxycycline to the culture medium.
HEKZFP cells were grown in DMEM supplemented with L-glutamine (2 mM), penicillin (50 units/mL) and streptomycin (50 μg/mL) and 10% FBS (v/v).
Membranes were prepared from the HEKZFP cells after induction. […] The thawed pellets were homogenized using a Polytron PT-10 (7×1 s). The homogenates were centrifuged for 5 min at 1500 rpm (600×g), and the resulting pellets were discarded. The supernatants were re-centrifuged in order to collect the receptor-membrane pellets (25 min 15,000 rpm; 39,800×g), which were re-suspended in buffer A.
The assay preparation was incubated for 1 h at 21±3° C., and then the assay was terminated by rapid filtration of the preparation under reduced pressure. The loaded filters were washed three times using undiluted PBS (100 μL), and then 100 μL of scintillation fluid was added to the filter plate. Bound radioactivity was determined using a Topcount (Packard BioScience, Meriden, Conn.) with a count time of 1 min. […] To validate the radioligand concentration and incubation time for the assay, saturation and kinetic binding studies were also conducted (see M. F. Morton, The Pharmacological Characterization of Cholecystokinin Receptors in the Human Gastrointestinal Tract. PhD Thesis, University of London, 2000). […] The assay was then terminated according to the procedure outlined above.
(§1) 3. Data Analysis for CCK1 and CCK2 Binding Assays
The pKi values were determined using the equation of Y.-C.
(§2) [formula] To circumvent problems associated with computer-assisted data analysis of compounds with low affinity, the data obtained in the current study were weighted according to a method described by Morton. In brief, 100% and 0% specific binding were defined independently using total binding and binding obtained in the presence of a high concentration of the reference antagonist, 2-NAP.

In experiment [2] the target is T2, CCK-1 receptor (Homo sapiens, UniProt P32238).
T2 construct: expressed in transfected cells; host or cells: CHO-K1
T2 sequence (P32238 1-428): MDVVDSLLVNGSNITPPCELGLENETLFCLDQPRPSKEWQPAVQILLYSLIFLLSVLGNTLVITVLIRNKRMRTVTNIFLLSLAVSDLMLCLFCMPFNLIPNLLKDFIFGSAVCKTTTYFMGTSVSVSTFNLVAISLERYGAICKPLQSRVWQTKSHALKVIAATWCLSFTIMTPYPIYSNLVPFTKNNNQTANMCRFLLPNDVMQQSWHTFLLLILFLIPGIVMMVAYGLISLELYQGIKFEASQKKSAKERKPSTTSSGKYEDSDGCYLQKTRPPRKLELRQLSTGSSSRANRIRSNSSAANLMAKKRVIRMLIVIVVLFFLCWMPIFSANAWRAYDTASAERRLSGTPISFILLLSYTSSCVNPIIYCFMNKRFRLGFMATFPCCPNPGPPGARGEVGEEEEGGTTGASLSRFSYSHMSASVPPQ
In words: CCK1 binding assay ([125I]-BH-CCK-8S displacement, CHO-K1 membranes). Particulars: membranes of CHO-K1 cells stably transfected with the CCK-1 receptor, 20 pM [125I]-BH-CCK-8S, 0.3 μM PD-134,308 present, 60 min at 21±3° C.; for Ki: read-out: CCK1 pKi (converted). The procedure: 1. CCK1 Assay Development and Data Generation
CHO-K1 cells that had undergone stable transfection with the CCK-1 receptor were grown in DMEM supplemented with L-glutamine (2 mM), penicillin (50 units/mL) and streptomycin (50 μg/mL). Cells were cultured under continuous G418 selection (2 mM) and were harvested using a rubber cell scraper. CHO-K1 cells were sub-cultured a maximum of ten times before being reseeded from the original stocks.
Membranes were prepared from the stably transfected CHO-K1 cells. Frozen cell pellets (−40° C.) were thawed in 14 mL of buffer A (10 mM HEPES, 130 mM NaCl, 4.7 mM KCl, 5 mM MgCl, 1 mM EGTA and 15.4 mg/100 mL bacitracin at pH 7.2), adapted from Harper et al. (Br. J. Pharmacol. 1996, 118:1717-1726). The thawed pellets were homogenized using a Polytron PT-10 (7×1 s). The homogenates were centrifuged for 5 min at 1500 rpm (600×g), and the resulting pellets were discarded. The supernatants were re-centrifuged in order to collect the receptor-membrane pellets (25 min 15,000 rpm; 39,800×g), which were re-suspended in buffer A.
All assays were conducted in 96-well plates (GF/B millipore filter plates) using buffer A, with 0.3 μM PD-134,308, for the dilutions. The CCK-2 receptor ligand was included to eliminate the contribution of this receptor subtype to the binding. For the optimal cell number determination experiments 20 pM [^125I]-BH-CCK-8S (50 μL […] solution) was incubated with a range of cell concentrations ([…] to 12.5×10^5 cells/well) in a total volume of 150 μL. Total binding of [^125I]-BH-CCK-8S was determined in the presence of 15 μL of buffer A. Non-specific binding of [^125I]-BH-CCK-8S was determined in the presence of 15 μL of 100 μM 2-naphthalenesulphonyl L-aspartyl-(2-phenethyl)amide (2-NAP: see R. A. Hull et al. Br. J. Pharmacol. 1993, 108:734-740), a CCK-1 receptor selective antagonist that is structurally unrelated to the radioligand [^125I]-BH-CCK-8S. The assay preparation was incubated for 1 h at 21±3° C., and then the assay was terminated upon rapid filtration of the preparation under reduced pressure. The loaded filters were washed three times using undiluted PBS ([…]), and then the residues were transferred to 5 mL scintillation tubes. Bound radioactivity was determined using a gamma counter (count time=1 min). […] To validate the radioligand concentration and incubation time for the assay, saturation and kinetic binding studies were also conducted (see M. F. Morton, The Pharmacological Characterization of Cholecystokinin Receptors in the Human Gastrointestinal Tract. PhD Thesis, University of London, 2000). […] The assay was then terminated according to the procedure outlined above.
as §1
The pKi values were determined using the equation of Y.-C. Cheng and W. H. Prusoff (Biochem. Pharmacol., 1973, 22(23):3099-3108):
as §2

Molecules are shown by their SMILES.

As to `O=C(NC(C(=O)O)C(O)c1ccc(Cl)c(Cl)c1)c1ccc(Cl)cc1NS(=O)(=O)c1cccc2nsnc12` (mixture of isomers) [Example 19, 2-[2-(Benzo[1,2,5]thiadiazole-4-sulfonylamino)-4-chloro-benzoylamino]-3-(3,4-dichloro-phenyl)-3-hydroxy-propionic acid], the Ki in experiment [1] is 0.251 µM; in experiment [2], 0.2 µM.
Taken in the same sequence, the figures for `CC(CNC(=O)c1ccc(Cl)cc1NS(=O)(=O)c1cccc2nsnc12)c1ccc(Cl)cc1` (racemic) [Example 1, (±)-2-(Benzo[1,2,5]thiadiazole-4-sulfonylamino)-4-chloro-N-[2-(4-chloro-phenyl)-propyl]-benzamide] were 0.398 µM and 0.126 µM.
`CC(CNC(=O)c1ccc(Cl)cc1NS(=O)(=O)c1ccc(F)cc1F)c1ccc(Cl)c(Cl)c1` (racemic) [Example 10, (±)-4-Chloro-N-[2-(3,4-dichloro-phenyl)-propyl]-2-(2,4-difluorobenzenesulfonylamino)-benzamide]: the Ki in experiment [1] is 7.94 µM; in experiment [2], 0.02 µM.
As for `Cc1ccc(C(=O)NC(CO)Cc2ccc(Cl)cc2)c(NS(=O)(=O)c2cccc3nsnc23)c1` (racemic) [Example 12, (±)-2-(Benzo[1,2,5]thiadiazole-4-sulfonylamino)-N-[2-(4-chloro-phenyl)-1-hydroxymethyl-ethyl]-4-methyl-benzamide], the Ki is 0.0631 µM in experiment [1] and 1.26 µM in experiment [2].
For the compound `CC(CNC(=O)c1cc(Cl)ccc1NS(=O)(=O)c1cccc2nsnc12)c1ccc(Cl)c(Cl)c1` (racemic) [Example 16, (±)-2-(Benzo[1,2,5]thiadiazole-4-sulfonylamino)-5-chloro-N-[2-(3,4-dichloro-phenyl)-propyl]-benzamide], the Ki is 0.631 µM in experiment [1] and 0.0631 µM in experiment [2].
For the compound `COC(=O)C(NC(=O)c1ccc(Cl)cc1NS(=O)(=O)c1cccc2nccnc12)C(=O)c1ccc(Cl)c(Cl)c1` (racemic) [Example 18, (±)-2-[4-Chloro-2-(quinoxaline-5-sulfonylamino)-benzoylamino]-3-(3,4-dichloro-phenyl)-3-oxo-propionic acid methyl ester], the Ki in experiment [1] is 1.58 µM; in experiment [2], 0.316 µM.
With `O=C(NC(CO)Cc1ccc(Cl)cc1)c1ccc(Cl)cc1NS(=O)(=O)c1cccc2nsnc12` (racemic) [Example 52, (±)-2-(Benzo[1,2,5]thiadiazole-4-sulfonylamino)-4-chloro-N-[2-(4-chloro-phenyl)-1-hydroxymethyl-ethyl]-benzamide], the Ki in experiment [1] is 0.1 µM; in experiment [2] it was 0.501 µM.
As to `CC(Cc1ccc(Cl)cc1)NC(=O)c1ccc(Br)cc1NS(=O)(=O)c1cccc2nsnc12` (racemic) [Example 53, (±)-2-(Benzo[1,2,5]thiadiazole-4-sulfonylamino)-4-bromo-N-[2-(4-chloro-phenyl)-1-methyl-ethyl]-benzamide], the results for the Ki in experiment [1] and in experiment [2] were 2.51 µM and 0.126 µM, respectively.
Taken in the same sequence, the figures for `Cc1ccc(C(=O)NCC(C)c2ccc(Cl)cc2)c(NS(=O)(=O)c2cccc3nsnc23)c1` (racemic) [Example 54, (±)-2-(Benzo[1,2,5]thiadiazole-4-sulfonylamino)-N-[2-(4-chloro-phenyl)-propyl]-4-methyl-benzamide] were 0.316 µM and 0.794 µM.
For `CC(CNC(=O)c1ccc(Cl)cc1NS(=O)(=O)c1cccc2nsnc12)c1ccc(Cl)c(Cl)c1` (racemic) [Example 57, (±)-2-(Benzo[1,2,5]thiadiazole-4-sulfonylamino)-4-chloro-N-[2-(3,4-dichloro-phenyl)-propyl]-benzamide] the same measures were 0.501 µM and 0.0126 µM.
`CC(CNC(=O)c1cc(Cl)c(Cl)cc1NS(=O)(=O)c1cccc2nsnc12)c1ccc(Cl)c(Cl)c1` (racemic) [Example 58, (±)-2-(Benzo[1,2,5]thiadiazole-4-sulfonylamino)-4,5-dichloro-N-[2-(3,4-dichloro-phenyl)-propyl]-benzamide]: the Ki in experiment [1] was 0.501 µM; in experiment [2], 0.0316 µM.
As for `CC(CNC(=O)c1ccc(Cl)cc1NS(=O)(=O)c1cccc2nccnc12)c1ccc(Cl)c(Cl)c1` (racemic) [Example 59, (±)-4-Chloro-N-[2-(3,4-dichloro-phenyl)-propyl]-2-(quinoxaline-5-sulfonylamino)-benzamide], the Ki was 0.794 µM in experiment [1] and 0.0794 µM in experiment [2].
Regarding `O=C(N[C@H](Cc1ccc(Cl)c(Cl)c1)C(=O)O)c1ccc(Cl)cc1NS(=O)(=O)c1cccc2nsnc12` [Example 118, (R)-2-[2-(Benzo[1,2,5]thiadiazole-4-sulfonylamino)-4-chloro-benzoylamino]-3-(3,4-dichloro-phenyl)-propionic acid], in experiment [2], the “CCK1 pKi” value was 7.1.
